Experimental data from paper PMC9117128, “Phage anti-CBASS and anti-Pycsar nucleases subvert bacterial immunity” (Nature, 2022).

Key:
[1] = biological target: T1, PycTIR (Burkholderia cepacia, UniProt A0A0J5WTU0); assay: fluorescent NADase activation assay; type: biochemical; details: 500 µM ε-NAD, pH 7.5, room temperature
T1 sequence (A0A0J5WTU0 1-303): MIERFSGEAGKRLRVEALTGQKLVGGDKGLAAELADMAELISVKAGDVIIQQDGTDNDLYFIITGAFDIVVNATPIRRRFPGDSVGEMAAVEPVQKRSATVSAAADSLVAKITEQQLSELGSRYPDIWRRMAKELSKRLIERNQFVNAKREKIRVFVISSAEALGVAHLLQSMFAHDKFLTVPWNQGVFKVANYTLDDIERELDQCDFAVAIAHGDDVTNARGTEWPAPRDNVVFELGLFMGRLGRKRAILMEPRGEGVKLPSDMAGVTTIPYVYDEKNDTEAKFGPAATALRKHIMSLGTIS

[2] = biological target: T2, YhfI (Bacillus subtilis, UniProt O07607); assay: HPLC cleavage assay; type: biochemical; details: Mg2+, Mn2+, pH 7.5, 37 °C
T2 construct: recombinant, homodimer

[3] = biological target: the molecule itself; assay: crystal structure; hanging-drop crystals grown at 18 °C from purified protein (10 mg/ml, 20 mM HEPES-KOH pH 7.5, 80 mM KCl, 1 mM TCEP); homodimer seen in the crystal structures

T2 sequence (O07607 whole entry): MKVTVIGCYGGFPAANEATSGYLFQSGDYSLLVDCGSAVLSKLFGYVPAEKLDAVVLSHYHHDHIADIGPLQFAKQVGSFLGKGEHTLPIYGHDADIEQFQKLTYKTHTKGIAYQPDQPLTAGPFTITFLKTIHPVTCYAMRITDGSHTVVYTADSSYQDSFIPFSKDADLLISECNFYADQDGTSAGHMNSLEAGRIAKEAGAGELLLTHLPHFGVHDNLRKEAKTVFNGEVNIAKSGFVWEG

O=c1ccn([C@@H]2O[C@@H]3COP(=O)(O)O[C@H]3[C@H]2O)c(=O)[nH]1 [cUMP]
fluorescent NADase activation assay ([1]; activator): cUMP-dependent activation of the Pycsar NADase effector PycTIR

Nc1nc2c(ncn2[C@@H]2O[C@@H]3COP(=O)(O)O[C@H]3[C@H]2O)c(=O)[nH]1 [cGMP]
HPLC cleavage assay [2]: exhibited a strong preference for cAMP/cGMP over cCMP/cUMP cleavage

NC(=O)c1ccc[n+]([C@@H]2O[C@H](COP(=O)(O)OP(=O)(O)OC[C@H]3O[C@@H](n4cnc5c4ncn4ccnc54)[C@H](O)[C@@H]3O)[C@@H](O)[C@H]2O)c1 [ε-NAD]
fluorescent NADase activation assay ([1]; cUMP as activator): Release of fluorescent substrate from an NAD^+ analogue incubated with the Pycsar effector PycTIR

B1: Paenibacillus J14 Apyc1 (enzyme)
chain: ALRLQMLGTGGAFAKKYFNNNALLYAGDFTLLIDCGITAPLALHTIGKSVEEIDAVLITHIHGDHVGGLEELAFRRKFGSGRKPILYIAENLVEPLWENTLKGGLSQDGVIHSLNDVFDVRLLKESEPAQLAPELKVELIRTPHIPGKPSYSLYINDEIFYSADMTFEPELLMRLVRERGCRRIFHEVQLTGKGEVHTTLQELLSLPTEIQSQILLKHYSDDMESFRGATGNMDFLRQHEVYTL
modifications: selenomethionine-labelled
notes: Apyc1 homologue (MBL-fold class II phosphodiesterase) of Paenibacillus J14, GenBank WP_028539944.1; Crystallised with a hydrolysis-resistant phosphorothioate analogue of cAMP; also called P. J14 Apyc1; Paenibacillus Apyc1; source: E. coli BL21(DE3) RIL, selenomethionine-labelled, purified (Ni-NTA, Superdex 75 SEC); not shown: 6×His-SUMO2 or 6×His-MBP-SUMO2, N-terminal, cleaved
stoichiometry N [3]: 2

B2: Apyc1 from the phage Bsp38 (enzyme)
chain: MLHTTQIRMVGTGSAFSKKFYNNSALVTFTNGYNLLIDCGHSVPKGLHDADIPLESIDGILITHTHADHIGGLEEVALYNKFVLGGRKIDLLVPNTLVESLWENSLKGGLRYSDTYDDLSLSDYFTVRSLKTFTSGAARTQLEENIAIKLYPTFHVSHMASYAVGLEDRGEDKVFYSSDTIFDEYLIDYALTYSWVFHDCQFFTGGVHASLDELLNYIPEEDQDRVFLMHYGDNMEDFFTKTGRMRFALQGRTYIL
notes: Anti-Pycsar protein Apyc1 (MBL-fold class II phosphodiesterase) of phage Bsp38; The SUMO2 tag was cleaved with SENP2; also called Bsp38 Apyc1; source: E. coli BL21(DE3) RIL, purified (Ni-NTA, Superdex 75 SEC); not shown: 6×His-SUMO2 or 6×His-MBP-SUMO2, N-terminal, cleaved
stoichiometry N [3]: 2

B3: Paenibacillus xerothermodurans Apyc1 (enzyme)
chain: SLQIQMIGTGSAFAKKFYNNNALVKCNGFQLLIDCGVTAPRALHELGVPITGIDGILITHIHADHVGGIEEFAFRLKYKYGMTIKLFVPAALVNPLWDHSLRGGLENKAEGLEQLADYFDVVALEEAVVHEIHPGLTVELVRSQHIAGKASYSLLLNNLLFYSSDARFNYAQLVELSTSGRCKYILHDCQLAEPAAVHATLNELLTLPEAVQEMIMLMHYDDEMEQFIGKSGKMSFMQQHKTYSFTEAT
notes: Apyc1 homologue (MBL-fold class II phosphodiesterase) of Paenibacillus xerothermodurans; also called P. xerothermodurans Apyc1; Paenibacillus Apyc1; source: E. coli BL21(DE3) RIL, purified (Ni-NTA, Superdex 75 SEC); not shown: 6×His-SUMO2 or 6×His-MBP-SUMO2, N-terminal, cleaved
stoichiometry N [3]: 2
